The source of these data is ChEMBL document CHEMBL1126963, “Acid unit modifications of 1,2,4,5-substituted hydroxyacetophenones and the effect on in vitro and in vivo LTB4 receptor antagonism” (Bioorg Med Chem Lett, 1993).

The structures appear in SMILES notation.

Common to all, as to format: functional
One assay is filed under the species Homo sapiens. The assay is described as follows: Antagonism of LTB4 receptor induced CD11b/CD18 adhesion protein up-regulation in human neutrophil.
In assay [1] the test system is Cavia porcellus. Description: Potency was evaluated in vivo in a guinea pig model of LTB4-induced airway obstruction upon intravenous administration.
Assay [2] deals with Cavia porcellus. The assay is described as follows: Potency was evaluated in vivo in a guinea pig model of LTB4-induced airway obstruction upon oral administration.

By IC50 is commonly meant the midpoint of a concentration-inhibition curve. High values mean weaker potency in that assay, low ones greater potency in that assay. In the case of `CCCc1c(OCCCOc2cc(O)c(C(C)=O)cc2CC)cccc1OC(CC)C(=O)O` (stereo not drawn), in the assay filed under Homo sapiens, it took 1.94 µM to reach half-maximal inhibition (IC50).

For the molecule `CCCc1c(OCCCOc2cc(O)c(C(C)=O)cc2CC)cccc1OC(C)C(=O)O` (stereo not drawn), the IC50 in the assay listed under Homo sapiens came to 3.27 µM.

Broadly, the ED50 is the dose that gives a 50% effect, or the effect in half of the subjects. Low readings indicate an effect at a small dose, high ones a need for a large dose. Turning to `CCCc1c(OCCCOc2cc(O)c(C(C)=O)cc2CC)ccc2c1OC(C(=O)[O-])CC2.[Na+]` (stereo not drawn), the ED50 in the assay with Cavia porcellus [1] turned out to be 0.23 mg/kg; in the assay with Cavia porcellus [2], 0.5 mg/kg. In the assay filed under Homo sapiens, this molecule returned an IC50 of 1.6 µM. As to `CCCc1c(OCCCOc2cc(O)c(C(C)=O)cc2CC)cccc1OCC(=O)O`, in the assay filed under Homo sapiens, inhibition was half-maximal at 4.39 µM (IC50).

In the case of `CCc1cc(C(C)=O)c(O)cc1OCCCCCC(C)(C)c1nn[nH]n1` [LY-255283], the figures for the median effective dose (ED50) with Cavia porcellus [1] and with Cavia porcellus [2] were 2.8 mg/kg and 11 mg/kg, respectively.
